Results published in patent publication US10961401B2, “UV cured benzophenone terminated quaternary ammonium antimicrobials for surfaces” (NANO SAFE COATINGS INCORPORATED, priority 2012, dated 2021).
Counter-ions that a name gives are not always drawn.

Experiments:
Pseudomonas spp. CTO7 = assay: Flow-cell antimicrobial test: bacterial cell count in effluent of coated silicone tubing; assay type: cell-based; conditions: 100 μL effluent plated on 10% TSA
Method: Preparation of Self Assembled Monolayers on Silicone Tubing
Silicone tubing was rinsed with IPA and H2O using a peristaltic pump then dried by running air through the tubes. A 0.05% (w/v) solution of 8a in H2O and a 0.5% (w/v) solution of 4c in H2O/IPA were prepared. Tubes were coated using the peristaltic pump and filled tubes were irradiated using a UV fumehood for 25 minutes. Coated tubes were then rinsed with H2O to remove any unbound materials.
1.5% (w/v) solutions of 8a and 4c in dichloromethane (DCM) were prepared. These solutions were pumped through clean silicone tubing using a syringe and irradiated using a UV quartz lamp for 30 minutes.
Antimicrobial Test Method
The antimicrobial efficacy was determined using a flow-cell method as described in Markison C and Swan J, “The Effect of Humidity on the Survival of MRSA on Hard Surfaces”, Indoor and Built Environment, 2006, 15(1), 85-91. A 1% tryptic soy broth and an inoculum of 10×10^4 cfu/mL of Pseudomonas spp. CTO7 were pumped through silicone tubing coated with 8a, 4c and a control tube for 30 hours. The tubes were then left stagnant for a period of 2 hours after which only the 1% TSB was allowed to flow through the tubes for 48 hours. During these 48 hours effluent samples of 100 μL were collected periodically and plated on 10% trypticase soy agar (TSA) in a dilution series up to 10×10^4. Sampling periods were time zero, 3 hours, 6 hours, 24 hours, 27 hours, 30 hours, and 48 hours. The number of colonies grown on each plate was counted in order to determine antimicrobial activity.

[1] = time 0 hr, sample dilution 10^0
[2] = time 0 hr, sample dilution 10^−1
[3] = time 0 hr, sample dilution 10^−2
[4] = time 0 hr, sample dilution 10^−3
[5] = time 0 hr, sample dilution 10^−4
[6] = time 3 hr, sample dilution 10^0
[7] = time 3 hr, sample dilution 10^−1
[8] = time 3 hr, sample dilution 10^−2
[9] = time 3 hr, sample dilution 10^−3
[10] = time 3 hr, sample dilution 10^−4
[11] = time 6 hr, sample dilution 10^0
[12] = time 6 hr, sample dilution 10^−1
[13] = time 6 hr, sample dilution 10^−2
[14] = time 6 hr, sample dilution 10^−3
[15] = time 6 hr, sample dilution 10^−4
[16] = time 24 hr, sample dilution 10^0
[17] = time 24 hr, sample dilution 10^−1
[18] = time 24 hr, sample dilution 10^−2
[19] = time 24 hr, sample dilution 10^−3
[20] = time 24 hr, sample dilution 10^−4
[21] = time 27 hr, sample dilution 10^0
[22] = time 27 hr, sample dilution 10^−1
[23] = time 27 hr, sample dilution 10^−2
[24] = time 27 hr, sample dilution 10^−3
[25] = time 27 hr, sample dilution 10^−4
[26] = time 30 hr, sample dilution 10^0
[27] = time 30 hr, sample dilution 10^−1
[28] = time 30 hr, sample dilution 10^−2
[29] = time 30 hr, sample dilution 10^−3
[30] = time 30 hr, sample dilution 10^−4
[31] = time 48 hr, sample dilution 10^0
[32] = time 48 hr, sample dilution 10^−1
[33] = time 48 hr, sample dilution 10^−2
[34] = time 48 hr, sample dilution 10^−3
[35] = time 48 hr, sample dilution 10^−4

Row | SMILES | Pseudomonas bacterial cell count on coated silicone tubing (Pseudomonas spp. CTO7; [1]) [cfu/mL] | Pseudomonas bacterial cell count on coated silicone tubing (Pseudomonas spp. CTO7; [2]) [cfu/mL] | Pseudomonas bacterial cell count on coated silicone tubing (Pseudomonas spp. CTO7; [3]) [cfu/mL] | Pseudomonas bacterial cell count on coated silicone tubing (Pseudomonas spp. CTO7; [4]) [cfu/mL] | Pseudomonas bacterial cell count on coated silicone tubing (Pseudomonas spp. CTO7; [5]) [cfu/mL] | Pseudomonas bacterial cell count on coated silicone tubing (Pseudomonas spp. CTO7; [6]) [cfu/mL] | Pseudomonas bacterial cell count on coated silicone tubing (Pseudomonas spp. CTO7; [7]) [cfu/mL] | Pseudomonas bacterial cell count on coated silicone tubing (Pseudomonas spp. CTO7; [8]) [cfu/mL] | Pseudomonas bacterial cell count on coated silicone tubing (Pseudomonas spp. CTO7; [9]) [cfu/mL] | Pseudomonas bacterial cell count on coated silicone tubing (Pseudomonas spp. CTO7; [10]) [cfu/mL] | Pseudomonas bacterial cell count on coated silicone tubing (Pseudomonas spp. CTO7; [11]) [cfu/mL] | Pseudomonas bacterial cell count on coated silicone tubing (Pseudomonas spp. CTO7; [12]) [cfu/mL] | Pseudomonas bacterial cell count on coated silicone tubing (Pseudomonas spp. CTO7; [13]) [cfu/mL] | Pseudomonas bacterial cell count on coated silicone tubing (Pseudomonas spp. CTO7; [14]) [cfu/mL] | Pseudomonas bacterial cell count on coated silicone tubing (Pseudomonas spp. CTO7; [15]) [cfu/mL] | Pseudomonas bacterial cell count on coated silicone tubing (Pseudomonas spp. CTO7; [16]) [cfu/mL] | Pseudomonas bacterial cell count on coated silicone tubing (Pseudomonas spp. CTO7; [17]) [cfu/mL] | Pseudomonas bacterial cell count on coated silicone tubing (Pseudomonas spp. CTO7; [18]) [cfu/mL] | Pseudomonas bacterial cell count on coated silicone tubing (Pseudomonas spp. CTO7; [19]) [cfu/mL] | Pseudomonas bacterial cell count on coated silicone tubing (Pseudomonas spp. CTO7; [20]) [cfu/mL] | further results
1 | CN(C)c1cccc2c(S(=O)(=O)NCCC[N+](C)(C)CCCCOc3ccc(C(=O)c4ccccc4)cc3)cccc12 (as salt: bromide) [Compound 8a, 4-(4-benzoylphenoxy)-N-(3-(5-(dimethylamino)naphthalene-1-sulfonamido)propyl)-N,N-dimethylbutan-1-ammonium bromide] | – | – | – | – | – | – | – | – | – | – | – | – | – | – | – | – | – | – | – | – | melting point: 96 to 104 °C
2 | CCCCCCCCCCCCCCCCCC[N+](C)(C)CCCOc1ccc(C(=O)c2ccccc2)cc1 [Compound 4c] | 300 | 300 | 48 | 8 | 0 | 20 | 0 | 0 | 0 | 0 | 160 | 15 | 0 | 0 | 0 | 300 | 200 | 21 | 4 | 0 | Pseudomonas bacterial cell count on coated silicone tubing (Pseudomonas spp. CTO7; [21]): 300 cfu/mL; Pseudomonas bacterial cell count on coated silicone tubing (Pseudomonas spp. CTO7; [22]): 110 cfu/mL; Pseudomonas bacterial cell count on coated silicone tubing (Pseudomonas spp. CTO7; [23]): 11 cfu/mL; Pseudomonas bacterial cell count on coated silicone tubing (Pseudomonas spp. CTO7; [24]): 0 cfu/mL; Pseudomonas bacterial cell count on coated silicone tubing (Pseudomonas spp. CTO7; [25]): 0 cfu/mL; Pseudomonas bacterial cell count on coated silicone tubing (Pseudomonas spp. CTO7; [26]): 300 cfu/mL; Pseudomonas bacterial cell count on coated silicone tubing (Pseudomonas spp. CTO7; [27]): 70 cfu/mL; Pseudomonas bacterial cell count on coated silicone tubing (Pseudomonas spp. CTO7; [28]): 5 cfu/mL; Pseudomonas bacterial cell count on coated silicone tubing (Pseudomonas spp. CTO7; [29]): 0 cfu/mL; Pseudomonas bacterial cell count on coated silicone tubing (Pseudomonas spp. CTO7; [30]): 0 cfu/mL; Pseudomonas bacterial cell count on coated silicone tubing (Pseudomonas spp. CTO7; [31]): 289 cfu/mL; Pseudomonas bacterial cell count on coated silicone tubing (Pseudomonas spp. CTO7; [32]): 31 cfu/mL; Pseudomonas bacterial cell count on coated silicone tubing (Pseudomonas spp. CTO7; [33]): 0 cfu/mL; Pseudomonas bacterial cell count on coated silicone tubing (Pseudomonas spp. CTO7; [34]): 0 cfu/mL; Pseudomonas bacterial cell count on coated silicone tubing (Pseudomonas spp. CTO7; [35]): 0 cfu/mL
3 | CN(C)c1cccc2c(S(=O)(=O)NCCC[N+](C)(C)CCCCOc3ccc(C(=O)c4ccccc4)cc3)cccc12 [Compound 8a, 4-(4-benzoylphenoxy)-N-(3-(5-(dimethylamino)naphthalene-1-sulfonamido)propyl)-N,N-dimethylbutan-1-ammonium bromide] | 0 | 0 | 0 | 0 | 0 | 15 | 0 | 0 | 0 | 0 | 6 | 0 | 0 | 0 | 0 | 0 | 0 | 0 | 0 | 0 | Pseudomonas bacterial cell count on coated silicone tubing (Pseudomonas spp. CTO7; [21]): 30 cfu/mL; Pseudomonas bacterial cell count on coated silicone tubing (Pseudomonas spp. CTO7; [22]): 0 cfu/mL; Pseudomonas bacterial cell count on coated silicone tubing (Pseudomonas spp. CTO7; [23]): 0 cfu/mL; Pseudomonas bacterial cell count on coated silicone tubing (Pseudomonas spp. CTO7; [24]): 0 cfu/mL; Pseudomonas bacterial cell count on coated silicone tubing (Pseudomonas spp. CTO7; [25]): 0 cfu/mL; Pseudomonas bacterial cell count on coated silicone tubing (Pseudomonas spp. CTO7; [26]): 18 cfu/mL; Pseudomonas bacterial cell count on coated silicone tubing (Pseudomonas spp. CTO7; [27]): 4 cfu/mL; Pseudomonas bacterial cell count on coated silicone tubing (Pseudomonas spp. CTO7; [28]): 0 cfu/mL; Pseudomonas bacterial cell count on coated silicone tubing (Pseudomonas spp. CTO7; [29]): 0 cfu/mL; Pseudomonas bacterial cell count on coated silicone tubing (Pseudomonas spp. CTO7; [30]): 0 cfu/mL; Pseudomonas bacterial cell count on coated silicone tubing (Pseudomonas spp. CTO7; [31]): 27 cfu/mL; Pseudomonas bacterial cell count on coated silicone tubing (Pseudomonas spp. CTO7; [32]): 1 cfu/mL; Pseudomonas bacterial cell count on coated silicone tubing (Pseudomonas spp. CTO7; [33]): 0 cfu/mL; Pseudomonas bacterial cell count on coated silicone tubing (Pseudomonas spp. CTO7; [34]): 0 cfu/mL; Pseudomonas bacterial cell count on coated silicone tubing (Pseudomonas spp. CTO7; [35]): 0 cfu/mL
